One data set concerns Caspase-1 (CASP-1). Nature of the data set: ELISA for Caspase-1 in culture media of EpiDermFT tissue inoculated with C. acnes. It is filed as cell-based, human. The conditions noted are these: C. acnes ATCC 11827 48 hours, 24-hour treatment. The procedure: (§1) EpiDermFT (EFT-400, MatTek Europe, Bratislava Slovak Republic) is a multilayered reconstituted model of the human dermis and epidermis, formed by culturing normal, human epidermal keratinocytes (NHEK) and normal, human dermal fibroblasts (NHFB). […] The dermal compartment is composed of a collagen matrix containing viable normal human dermal fibroblasts (NHDF). […] Testing was conducted on EpiDermFT in 12-well plates filled with culture medium without antibiotics at 37° C., 5% CO2, saturated humidity (90% RH). Inoculum-6 μL of lipid mix (olive oil and neutral triacylglycerol mixed 1:1) and 60 μL of C. acnes ATCC 11827, 10^7-10^8 CFU/mL-was applied to EpiDerm tissue for 48 hours. […] At the end of the treatment period, culture media was collected and stored at -20° C. for subsequent analysis by ELISA immunoassay for two inflammatory markers TNF-α and C[…] using commercially-available test kits-QuantikineTM ELISA Human Caspase-1/ICE Immunoassay and Human TNF-α Immunoassay both from R&D Systems, Inc. (Minneapolis, MN), Catalog Number DCA100 and DTAOOD, respectively.
(In general: ELISA stands for enzyme-linked immunosorbent assay.)

The subject of data set [1] is Tumor Necrosis Factor-alpha (TNF-α). Nature of the data set: ELISA for TNF-α in culture media of EpiDermFT tissue inoculated with C. acnes. It is filed as cell-based, human. The conditions noted are these: C. acnes ATCC 11827 48 hours, 24-hour treatment. The procedure:
as §1

For data set [2] the following is noted: ethanol / ethyl alcohol, normal temperatures; cited from earlier work.
The conditions of data set [3]: cited from earlier work.

“Also recorded” adds a separate entry of the source.

Take `O=C(O)c1ccccc1O` [Group 1, salicylic acid]: the “CASP-1 inflammatory response versus the C. acnes treated control” value in the data set on Caspase-1 (CASP-1) is listed as “increased inflammatory response”. In data set [1], the “TNF-α inflammatory response versus the C. acnes treated control” value is recorded as “increased inflammatory response”.
For `O=C(O)CCCCCCCC(=O)O` [azelaic acid, Azelaic acid], the “stability of azelaic acid in ethanol” value in data set [2] is “unstable; also recorded: instability”. Also, in data set [3] (isopropanol), the “solvent quality for azelaic acid” value is on record as “good”. Besides, the “maximum azelaic acid dissolved in water” value in data set [3] (water) is listed as ≤ 0.24 % by weight (w/w).

These data come from US20260232808A1, “Dicarboxylic Acid Concentrates” (Vantage Specialty Ingredients, Inc., priority 2023, published 2026).
